Experimental data taken from US6255080A, “Bacteriocins produced by ruminal bacteria” (priority 1998, dated 2001).
“Also recorded” adds a separate entry of the source.

Experiments:
indicator = assay: Effect of detergents on the indicator; type: cell-based
Method: Further increases in carbohydrate beyond 2% (w/v) had no further effect on enhancing production in liquid culture. As several bacteriocins are known to be cell associated (Jack et al., 1995), bound activity was assayed for by washing pelleted cells with various detergents (Triton X-100, Tween 80, Tween 20). […] However, both Tween 80 and Tween 20 appeared to have no detrimental efLect on the indicator at levels of up to 1.0% (v/v).

[1] = system: indicator strain of B. fibrisolvens; assay: Drop (spot) test and diffusion well assay of inhibitory activity; type: cell-based, Butyrivibrio fibrisolvens; conditions: spot testing, peptide purified by reverse phase chromatography
Method: Isolates found to produce bacteriocin-like activity using the deferred plating technique were tested for the production of bacteriocin-like activity in liquid cultures. Briefly, following overnight growth in L-10 medium, a 1.0 ml sample of the culture was centrifuged to remove the cells, and a 100 μl aliquot dropped onto a sterile petri dish and sterilised by exposure to shortwave ultraviolet light for a five minute period. Bacteriocin-like activity within the uv-sterilized spent culture fluid was assayed using both a drop test and diffusion well assay (Tagg et al., 1976). All steps were carried out under anerobic conditions in a glove box.
The active component was purified by FPLC ([…] System, Pharmacia) using reverse phase chromatography. All steps were carried out at 4° C. Solvents consisted of dH2 O (buffer A) and 2-propanol (buffer B), both of which contained 0.1% trifluoroacetic acid. A 0.5 ml aliquot of the crude bacteriocin preparation containing […] was injected onto a Resource RPC 3.0 ml column (Pharmacia), washed with two column volumes of buffer A, and eluted from the column with a gradient from 100% buffer A to 100% buffer B, at a flow rate of 1.0 ml/minute. The elution was monitored at 206 nm. […]

[2] = system: a-chymotrypsin or pronase; assay: Protease sensitivity in liquid (spent culture medium or purified bacteriocin), drop test; type: in vitro ADME; conditions: purified bacteriocin treated prior to sample preparation
Method: Determination of protease sensitivity of bacteriocin-like activity in liquid cultures was carried out as follows: 10 μl of a stock solution (10 mg/ml) of each protease was added to 100 μl of either spent culture medium or the purified bacteriocin, and incubated at 37° C. for 2 hours, after which activity was assessed using a drop test (Tagg et al., 1976). Controls consisted of protease only (1 in 10 dilution) spotted directly onto an overlay containing the indicator organism.
The purity of the peptide was assessed using Triacine-sodium-dodecyl-sulphate-polyacrylamide gel electrophoresis analysis followed by silver staining. […] Protease sensitivity of the isolated bacteriocin was identical to the protease sensitivity of the inhibitor produced in the deferred plate test (see above).

## CCCCCCCC/C=C\CCCCCCCC(=O)OCCOCC(OCCO)C1OCC(OCCO)C1OCCO (centres unmarked) [Tween 80]
indicator
  level with no detrimental effect on the indicator: up to 1.0 % (v/v)

## Butyrivibriocin AR10
[1]
  inhibitory activity of the purified peptide: inhibitory activity; also recorded: inhibitory to the growth
[2]
  effect of a-chymotrypsin treatment on inhibitory activity: completely eliminated inhibitory activity
  effect of pronase treatment on inhibitory activity: completely eliminated inhibitory activity

## Triton X-100
indicator; detergent
  level very detrimental to the indicator: less than 0.1 % (v/v)
